# Assay results taken from ChEMBL document CHEMBL3593172, “4-(N-Phenyl-N'-substituted benzenesulfonyl)-6-(4-hydroxyphenyl)quinolines as inhibitors of mammalian target of rapamycin” (Bioorg Med Chem, 2015).
# The source made the active and inactive calls. The calls are words filed in the database; no cut-off is given here.
# Tested on: not listed separately
# Test: Cell cycle arrest in human MIAPaCa2 cells assessed as accumulation at G2 phase at 20 uM after 24 hrs by propidium iodide staining-based flow cytometric analysis (reference value: 5%)
# Assay type: functional
# Conditions: MIA PaCa-2
row,Compound,Activity
1,CC(=O)Nc1ccc(S(=O)(=O)N(c2ccccc2)c2ccnc3ccc(-c4ccc(O)cc4)cc23)cc1,13%

# Tested on: not listed separately
# Test: Cell cycle arrest in human MIAPaCa2 cells assessed as accumulation at S phase at 10 uM after 24 hrs by propidium iodide staining-based flow cytometric analysis (reference value: […]%)
# Assay type: functional
# Conditions: MIA PaCa-2
row,Compound,Activity
1,CC(=O)Nc1ccc(S(=O)(=O)N(c2ccccc2)c2ccnc3ccc(-c4ccc(O)cc4)cc23)cc1,22%

# Tested on: not listed separately
# Test: Disruption of mitochondrial membrane potential in human MIAPaCa2 cells at 10 uM after 24 hrs by Rh123 dye-based flow cytometric analysis (reference value: 6%)
# Assay type: functional, MIA PaCa-2
# Conditions: not given
row,Compound,Activity
1,CC(=O)Nc1ccc(S(=O)(=O)N(c2ccccc2)c2ccnc3ccc(-c4ccc(O)cc4)cc23)cc1,13%

# Tested on: HepG2
# Test: Cytotoxicity against human HepG2 cells assessed as growth inhibition at 10 uM after 24 to 48 hrs by MTT assay relative to control
# Assay type: functional
# Conditions: read-out: GI
row,Compound,inhibition of growth at 10 µM
1,CC(=O)Nc1ccc(S(=O)(=O)N(c2ccccc2)c2ccnc3ccc(-c4ccc(O)cc4)cc23)cc1,5%

# Tested on: not listed separately
# Test: Cell cycle arrest in human MIAPaCa2 cells assessed as accumulation at S phase at 20 uM after 24 hrs by propidium iodide staining-based flow cytometric analysis (reference value: […]%)
# Assay type: functional
# Conditions: MIA PaCa-2
row,Compound,Activity
1,CC(=O)Nc1ccc(S(=O)(=O)N(c2ccccc2)c2ccnc3ccc(-c4ccc(O)cc4)cc23)cc1,21%

# Tested on: MIA PaCa-2
# Test: Effect on mTORC2 complex in human MIAPaCa2 cells assessed as p-Akt phosphorylation at S473 at 5 to 10 uM measured at 2 hrs by Western blot analysis
# Assay type: cell-based
# Conditions: not given
row,Compound,Activity
1,CC(=O)Nc1ccc(S(=O)(=O)N(c2ccccc2)c2ccnc3ccc(-c4ccc(O)cc4)cc23)cc1,inactive

# Tested on: HL-60
# Test: cells
# Conditions: Homo sapiens, HL-60, 48 h
# Description: Cytotoxicity against human HL60 cells assessed as inhibition of cell proliferation after 48 hrs by MTT assay
row,Compound,IC50
1,CC(=O)Nc1ccc(S(=O)(=O)N(c2ccccc2)c2ccnc3ccc(-c4ccc(O)cc4)cc23)cc1,16 µM

# Tested on: HCT-116
# Test: Cytotoxicity against human HCT116 cells assessed as growth inhibition at 100 uM after 24 to 48 hrs by MTT assay relative to control
# Assay type: functional
# Conditions: read-out: GI
row,Compound,inhibition of growth at 100 µM
1,CC(=O)Nc1ccc(S(=O)(=O)N(c2ccccc2)c2ccnc3ccc(-c4ccc(O)cc4)cc23)cc1,29%

# Tested on: HepG2
# Test: Cytotoxicity against human HepG2 cells assessed as growth inhibition at 30 uM after 24 to 48 hrs by MTT assay relative to control
# Assay type: functional
# Conditions: read-out: GI
row,Compound,inhibition of growth at 30 µM
1,CC(=O)Nc1ccc(S(=O)(=O)N(c2ccccc2)c2ccnc3ccc(-c4ccc(O)cc4)cc23)cc1,83%

# Tested on: not listed separately
# Test: Cell cycle arrest in human MIAPaCa2 cells assessed as apoptotic cells at 10 uM after 24 hrs by propidium iodide staining-based flow cytometric analysis (reference value: 0.1%)
# Assay type: functional
# Conditions: MIA PaCa-2
row,Compound,Activity
1,CC(=O)Nc1ccc(S(=O)(=O)N(c2ccccc2)c2ccnc3ccc(-c4ccc(O)cc4)cc23)cc1,1%

# Tested on: not listed separately
# Test: Cell cycle arrest in human MIAPaCa2 cells assessed as accumulation at G2 phase at 30 uM after 24 hrs by propidium iodide staining-based flow cytometric analysis (reference value: 5%)
# Assay type: functional
# Conditions: MIA PaCa-2
row,Compound,Activity
1,CC(=O)Nc1ccc(S(=O)(=O)N(c2ccccc2)c2ccnc3ccc(-c4ccc(O)cc4)cc23)cc1,15%

# Tested on: not listed separately
# Test: Disruption of mitochondrial membrane potential in human MIAPaCa2 cells at 30 uM after 24 hrs by Rh123 dye-based flow cytometric analysis (reference value: 6%)
# Assay type: functional, MIA PaCa-2
# Conditions: not given
row,Compound,Activity
1,CC(=O)Nc1ccc(S(=O)(=O)N(c2ccccc2)c2ccnc3ccc(-c4ccc(O)cc4)cc23)cc1,42%

# Tested on: HCT-116
# Test: Cytotoxicity against human HCT116 cells assessed as growth inhibition at 30 uM after 24 to 48 hrs by MTT assay relative to control
# Assay type: functional
# Conditions: read-out: GI
row,Compound,inhibition of growth at 30 µM
1,CC(=O)Nc1ccc(S(=O)(=O)N(c2ccccc2)c2ccnc3ccc(-c4ccc(O)cc4)cc23)cc1,25%

# Tested on: not listed separately
# Test: Cell cycle arrest in human MIAPaCa2 cells assessed as apoptotic cells at 30 uM after 24 hrs by propidium iodide staining-based flow cytometric analysis (reference value: 0.1%)
# Assay type: functional
# Conditions: MIA PaCa-2
row,Compound,Activity
1,CC(=O)Nc1ccc(S(=O)(=O)N(c2ccccc2)c2ccnc3ccc(-c4ccc(O)cc4)cc23)cc1,6%

# Tested on: not listed separately
# Test: Cell cycle arrest in human MIAPaCa2 cells assessed as apoptotic cells at 20 uM after 24 hrs by propidium iodide staining-based flow cytometric analysis (reference value: 0.1%)
# Assay type: functional
# Conditions: MIA PaCa-2
row,Compound,Activity
1,CC(=O)Nc1ccc(S(=O)(=O)N(c2ccccc2)c2ccnc3ccc(-c4ccc(O)cc4)cc23)cc1,1%

# Tested on: not listed separately
# Test: Cell cycle arrest in human MIAPaCa2 cells assessed as accumulation at G2 phase at 10 uM after 24 hrs by propidium iodide staining-based flow cytometric analysis (reference value: 5%)
# Assay type: functional
# Conditions: MIA PaCa-2
row,Compound,Activity
1,CC(=O)Nc1ccc(S(=O)(=O)N(c2ccccc2)c2ccnc3ccc(-c4ccc(O)cc4)cc23)cc1,19%

# Tested on: PC-3
# Test: Cytotoxicity against human PC3 cells assessed as growth inhibition at 10 uM after 24 to 48 hrs by MTT assay relative to control
# Assay type: functional
# Conditions: read-out: GI
row,Compound,inhibition of growth at 10 µM
1,CC(=O)Nc1ccc(S(=O)(=O)N(c2ccccc2)c2ccnc3ccc(-c4ccc(O)cc4)cc23)cc1,12%

# Tested on: not listed separately
# Test: Cell cycle arrest in human MIAPaCa2 cells assessed as accumulation at G1 phase at 30 uM after 24 hrs by propidium iodide staining-based flow cytometric analysis (reference value: 51%)
# Assay type: functional
# Conditions: MIA PaCa-2
row,Compound,Activity
1,CC(=O)Nc1ccc(S(=O)(=O)N(c2ccccc2)c2ccnc3ccc(-c4ccc(O)cc4)cc23)cc1,67%

# Tested on: PC-3
# Test: Cytotoxicity against human PC3 cells assessed as growth inhibition at 100 uM after 24 to 48 hrs by MTT assay relative to control
# Assay type: functional
# Conditions: read-out: GI
row,Compound,inhibition of growth at 100 µM
1,CC(=O)Nc1ccc(S(=O)(=O)N(c2ccccc2)c2ccnc3ccc(-c4ccc(O)cc4)cc23)cc1,25%

# Tested on: MIA PaCa-2
# Test: Effect on P110alpha expression in human MIAPaCa2 cells at 5 to 10 uM measured after 2 to 4 hrs by Western blot analysis
# Assay type: functional, cell-based
# Conditions: not given
row,Compound,Activity
1,CC(=O)Nc1ccc(S(=O)(=O)N(c2ccccc2)c2ccnc3ccc(-c4ccc(O)cc4)cc23)cc1,inactive

# Tested on: not listed separately
# Test: cells
# Conditions: Homo sapiens, MIA PaCa-2, 48 h
# Description: Cytotoxicity against human MIAPaCa2 cells assessed as inhibition of cell proliferation after 48 hrs by MTT assay
row,Compound,IC50
1,CC(=O)Nc1ccc(S(=O)(=O)N(c2ccccc2)c2ccnc3ccc(-c4ccc(O)cc4)cc23)cc1,7 µM

# Tested on: not listed separately
# Test: Cell cycle arrest in human MIAPaCa2 cells assessed as accumulation at S phase at 30 uM after 24 hrs by propidium iodide staining-based flow cytometric analysis (reference value: […]%)
# Assay type: functional
# Conditions: MIA PaCa-2
row,Compound,Activity
1,CC(=O)Nc1ccc(S(=O)(=O)N(c2ccccc2)c2ccnc3ccc(-c4ccc(O)cc4)cc23)cc1,19%

# Tested on: HL-60
# Test: Cytotoxicity against human HL60 cells assessed as growth inhibition at 100 uM after 24 to 48 hrs by MTT assay relative to control
# Assay type: functional
# Conditions: read-out: GI
row,Compound,inhibition of growth at 100 µM
1,CC(=O)Nc1ccc(S(=O)(=O)N(c2ccccc2)c2ccnc3ccc(-c4ccc(O)cc4)cc23)cc1,94%

# Tested on: not listed separately
# Test: Cell cycle arrest in human MIAPaCa2 cells assessed as accumulation at G1 phase at 20 uM after 24 hrs by propidium iodide staining-based flow cytometric analysis (reference value: 51%)
# Assay type: functional
# Conditions: MIA PaCa-2
row,Compound,Activity
1,CC(=O)Nc1ccc(S(=O)(=O)N(c2ccccc2)c2ccnc3ccc(-c4ccc(O)cc4)cc23)cc1,66%

# Tested on: HL-60
# Test: Cytotoxicity against human HL60 cells assessed as growth inhibition at 30 uM after 24 to 48 hrs by MTT assay relative to control
# Assay type: functional
# Conditions: read-out: GI
row,Compound,inhibition of growth at 30 µM
1,CC(=O)Nc1ccc(S(=O)(=O)N(c2ccccc2)c2ccnc3ccc(-c4ccc(O)cc4)cc23)cc1,93%

# Tested on: HL-60
# Test: Cytotoxicity against human HL60 cells assessed as growth inhibition at 10 uM after 24 to 48 hrs by MTT assay relative to control
# Assay type: functional
# Conditions: read-out: GI
row,Compound,inhibition of growth at 10 µM
1,CC(=O)Nc1ccc(S(=O)(=O)N(c2ccccc2)c2ccnc3ccc(-c4ccc(O)cc4)cc23)cc1,25%

# Tested on: PC-3
# Test: cells
# Conditions: Homo sapiens, PC-3, 48 h
# Description: Cytotoxicity against human PC3 cells assessed as inhibition of cell proliferation after 48 hrs by MTT assay
row,Compound,IC50
1,CC(=O)Nc1ccc(S(=O)(=O)N(c2ccccc2)c2ccnc3ccc(-c4ccc(O)cc4)cc23)cc1,75 µM

# Tested on: not listed separately
# Test: Cytotoxicity against human MIAPaCa2 cells assessed as growth inhibition at 30 uM after 24 to 48 hrs by MTT assay relative to control
# Assay type: functional
# Conditions: MIA PaCa-2, read-out: GI
row,Compound,inhibition of growth at 30 µM
1,CC(=O)Nc1ccc(S(=O)(=O)N(c2ccccc2)c2ccnc3ccc(-c4ccc(O)cc4)cc23)cc1,89%

# Tested on: HepG2
# Test: cells
# Conditions: Homo sapiens, HepG2, 48 h
# Description: Cytotoxicity against human HepG2 cells assessed as inhibition of cell proliferation after 48 hrs by MTT assay
row,Compound,IC50
1,CC(=O)Nc1ccc(S(=O)(=O)N(c2ccccc2)c2ccnc3ccc(-c4ccc(O)cc4)cc23)cc1,22 µM

# Tested on: not listed separately
# Test: Cell cycle arrest in human MIAPaCa2 cells assessed as accumulation at G1 phase at 10 uM after 24 hrs by propidium iodide staining-based flow cytometric analysis (reference value: 51%)
# Assay type: functional
# Conditions: MIA PaCa-2
row,Compound,Activity
1,CC(=O)Nc1ccc(S(=O)(=O)N(c2ccccc2)c2ccnc3ccc(-c4ccc(O)cc4)cc23)cc1,59%

# Tested on: HepG2
# Test: Cytotoxicity against human HepG2 cells assessed as growth inhibition at 100 uM after 24 to 48 hrs by MTT assay relative to control
# Assay type: functional
# Conditions: read-out: GI
row,Compound,inhibition of growth at 100 µM
1,CC(=O)Nc1ccc(S(=O)(=O)N(c2ccccc2)c2ccnc3ccc(-c4ccc(O)cc4)cc23)cc1,87%

# Tested on: not listed separately
# Test: Cytotoxicity against human MIAPaCa2 cells assessed as growth inhibition at 100 uM after 24 to 48 hrs by MTT assay relative to control
# Assay type: functional
# Conditions: MIA PaCa-2, read-out: GI
row,Compound,inhibition of growth at 100 µM
1,CC(=O)Nc1ccc(S(=O)(=O)N(c2ccccc2)c2ccnc3ccc(-c4ccc(O)cc4)cc23)cc1,89%

# Tested on: PC-3
# Test: Cytotoxicity against human PC3 cells assessed as growth inhibition at 30 uM after 24 to 48 hrs by MTT assay relative to control
# Assay type: functional
# Conditions: read-out: GI
row,Compound,inhibition of growth at 30 µM
1,CC(=O)Nc1ccc(S(=O)(=O)N(c2ccccc2)c2ccnc3ccc(-c4ccc(O)cc4)cc23)cc1,14%

# Tested on: not listed separately
# Test: Disruption of mitochondrial membrane potential in human MIAPaCa2 cells at 20 uM after 24 hrs by Rh123 dye-based flow cytometric analysis (reference value: 6%)
# Assay type: functional, MIA PaCa-2
# Conditions: not given
row,Compound,Activity
1,CC(=O)Nc1ccc(S(=O)(=O)N(c2ccccc2)c2ccnc3ccc(-c4ccc(O)cc4)cc23)cc1,23%

# Tested on: HCT-116
# Test: cells
# Conditions: Homo sapiens, HCT-116, 48 h
# Description: Cytotoxicity against human HCT116 cells assessed as inhibition of cell proliferation after 48 hrs by MTT assay
row,Compound,IC50
1,CC(=O)Nc1ccc(S(=O)(=O)N(c2ccccc2)c2ccnc3ccc(-c4ccc(O)cc4)cc23)cc1,< 100 µM

# Tested on: HCT-116
# Test: Cytotoxicity against human HCT116 cells assessed as growth inhibition at 10 uM after 24 to 48 hrs by MTT assay relative to control
# Assay type: functional
# Conditions: read-out: GI
row,Compound,inhibition of growth at 10 µM
1,CC(=O)Nc1ccc(S(=O)(=O)N(c2ccccc2)c2ccnc3ccc(-c4ccc(O)cc4)cc23)cc1,19%

# Tested on: not listed separately
# Test: Cytotoxicity against human MIAPaCa2 cells assessed as growth inhibition at 10 uM after 24 to 48 hrs by MTT assay relative to control
# Assay type: functional
# Conditions: MIA PaCa-2, read-out: GI
row,Compound,inhibition of growth at 10 µM
1,CC(=O)Nc1ccc(S(=O)(=O)N(c2ccccc2)c2ccnc3ccc(-c4ccc(O)cc4)cc23)cc1,64%

# Tested on: not listed separately
# Test: Cell cycle arrest in human MIAPaCa2 cells after 24 hrs by propidium iodide staining-based flow cytometric analysis
# Assay type: functional
# Conditions: MIA PaCa-2
row,Compound,Activity
1,CC(=O)Nc1ccc(S(=O)(=O)N(c2ccccc2)c2ccnc3ccc(-c4ccc(O)cc4)cc23)cc1,Dose-dependent effect
